Measured values reported in patent US20100093603A1, “USE OF ORGANIC COMPOUNDS” (priority 2008, published 2010).

Columns and labels:
Type in all cases: in vivo, Sprague Dawley rats
cardiac myocytes = assay: Cardiac myocyte apoptosis in heart sections (TUNEL assay and cleaved caspase-3 staining); conditions: STZ-diabetic rats; for Caspase-3 staining, Mean / TUNEL assay, Mean: 7 days of treatment, heart sections; for Caspase-3 staining, Mean: control 7, diabetic no treatment 28; for TUNEL assay, Mean: control 8.5, diabetic no treatment 33
[1] = test system: Cardiac interstitial fibrosis; assay: Cardiac interstitial fibrosis by Masson's trichrome staining, graded on a scale of 0-4; conditions: for degree of fibrosis (average grade): STZ-diabetic rats after one week of diabetes, scale 0-4, diabetic untreated grade 1.5, control grade 0; for diabetes-induced cardiac fibrosis (result in words): diabetic rats, summary statement
Procedure: (§1) Diabetes is induced by a single injection of streptozotocin (STZ, 65 mg/kg body weight, IP) dissolved in 0.1 M sodium citrate buffered saline (pH 4.5), in adult male Sprague Dawley rats (250-300 g). Control animals receive buffered saline alone. Diabetes is confirmed by sustained blood glucose levels >15 mmol/L, as determined 48 h after STZ injection and on alternate days thereafter. […] After 7 days, animals are weighed and anesthetized using ketamine/xylazine (50/5 mg/kg). Hearts are isolated and weighed before perfusion, the latter using the Langendorff methodology.
Cardiac interstitial fibrosis is determined by Masson's trichrome staining on 5 μm paraffin-embedded sections. The extent and degree of fibrosis is graded on a scale of 0-4. Grade 0 signifies no apparent collagen fiber proliferation except for small islets of fibrous tissue around the capillaries, as well as an intercellular single layer of collagenous tissue, as in normal myocardium. Focal and minimal fibrosis is graded as 1, mild patchy fibrosis as grade 2, moderate diffuse fibrosis as grade 3 and the most prominent fibrosis, covering major area of the specimen, is classified as 4. A minimum of three sections per heart, with five fields per section, and three animals per experimental group, are analyzed and results presented as an average grade.
After one week of diabetes, the overall staining for fibrosis is enhanced in hearts from diabetic rats (grade 1.5), compared to control animals (grade 0). […] Candesartan and benazepril reduces the degree of fibrosis (grade 0.43 and 0.88, respectively), whereas aliskiren has a more pronounced reduction of fibrosis (grade 0.25) in diabetic rat hearts.

[2] = test system: Superoxide production in the hearts; assay: Reactive oxygen species detection in the heart by dihydroethidium (DHE) staining; conditions: STZ-diabetic rats; for DHE fluorescence, Mean: 7 days of treatment, frozen heart sections, 10 μM DHE, control 17.65, diabetic no treatment 68.6; for superoxide production / oxidative stress (result in words): DHE staining of heart sections
[3] = test system: intracellular Ang II (iAng II) in cardiac myocytes; assay: Measurement of iAng II in cardiac myocytes isolated from STZ-diabetic rat hearts (competitive ELISA); conditions: for iAng II levels in cardiac myocytes: STZ-diabetic rats treated daily for 7 days (insulin 2-5 U BID SC; candesartan 1 mg/kg IP; aliskiren 30 mg/kg oral; benazepril 10 mg/kg oral), mean±SE, diabetic untreated 0.59±0.01, control 0.06±0.01; for iAng II synthesis, blocked or not (result in words): diabetic rats, summary statement
Procedure: as §1
Hearts are isolated and perfused with Krebs-Henseleit bicarbonate buffer, followed by digestion with collagenase II (0.1% w/v). Myocytes are separated from non-myocytes by differential centrifugation at 25×g. […] The pellet containing myocytes is processed for Ang II extraction, as described by Singh et al in Am J Physiol Heart Circ Physiol 293:H939-H948, 2007. Cells were lysed in ice-cold 1 M acetic acid, containing a protease inhibitor cocktail (Sigma), by sonication (2 pulses of 5 sec each). The lysate is sedimented at 20,000×g for 10 min and the supernatant is dried in a vacufuge, followed by reconstitution in 1% acetic acid. The samples are applied to a conditioned DSC-18 column (Supelco), washed, and eluted with methanol. The eluted samples are dried and reconstituted in PBS for ELISA. For isolation of Ang II from plasma, an equal volume of 2% acetic acid is added to plasma, followed by filtration through Amicon Ultra-15 filters. The filtrate is applied to DSC-18 columns and Ang II is eluted, as described for the cell lysates. […] Ang II is measured by quantitative, competitive ELISA, using a specific anti-Ang II antibody (Peninsula Labs), as previously described in Am J Physiol Heart Circ Physiol 293:H939-H948, 2007. ELISA is performed on protein-A and anti-Ang II antibody-coated 96-well dishes. Competitive binding of synthetic biotinylated Ang II, in the presence of the extracted peptide, is detected with streptavidin-horseradish peroxidase conjugate. A standard curve, generated from binding of a constant amount of biotinylated Ang II with increasing concentrations of non-biotinylated synthetic Ang II, is used to calculate the concentration of the peptide in the sample. The concentration of Ang II in the cell lysates is expressed as fmoles per milligram of heart wt and in plasma as fmoles per milligram of plasma proteins.
Ang II levels in cardiac myocytes, which are isolated after perfusion of the hearts and enzymatic dispersion, correspond to Ang II present intracellularly. To determine the source of iAng II, i.e., intracellular synthesis or AT1-mediated internalization, one group of diabetic animals is treated with the AT1 antagonist candesartan to prevent receptor-mediated uptake.

Row | Molecule | Caspase-3 staining, Mean (cardiac myocytes) | TUNEL assay, Mean (cardiac myocytes) | degree of fibrosis (average grade) [1] | diabetes-induced cardiac fibrosis (result in words) [1] | DHE fluorescence, Mean [2] | superoxide production / oxidative stress (result in words) [2] | iAng II levels in cardiac myocytes [3] | iAng II synthesis, blocked or not (result in words) [3] | number of apoptotic cells (result in words) (cardiac myocytes; by both TUNEL assay and caspase-3 staining)
1 | COCCCOc1cc(C[C@@H](C[C@H](N)[C@@H](O)C[C@H](C(=O)NCC(C)(C)C(N)=O)C(C)C)C(C)C)ccc1OC [aliskiren, 2(S),4(S),5(S),7(S)—N-(3-amino-2,2-dimethyl-3-oxopropyl)-2,7-di(1-methylethyl)-4-hydroxy-5-amino-8-[4-methoxy-3-(3-methoxy-propoxy)phenyl]-octanamide] | 18 positive cells/mm^2 | 21.3 positive cells/mm^2 | 0.25 grade | complete inhibition | 22.7 Arbitrary units | blocks it completely | 0.12±0.02 fmole/mg heart wt | blocked | 
2 | CCOC(=O)[C@H](CCc1ccccc1)N[C@H]1CCc2ccccc2N(CC(=O)O)C1=O [benazepril] | 21 positive cells/mm^2 | 27 positive cells/mm^2 | 0.88 grade | partially inhibited | 51.4 Arbitrary units | reduces oxidative stress | 0.55±0.02 fmole/mg heart wt | not | 
3 | CCOc1nc2cccc(C(=O)O)c2n1Cc1ccc(-c2ccccc2-c2nnn[nH]2)cc1 [candesartan] | 18.5 positive cells/mm^2 | 24 positive cells/mm^2 | 0.43 grade |  | 37.7 Arbitrary units |  | 0.43±0.05 fmole/mg heart wt |  | 
4 | insulin: type 1 diabetes therapeutic agent, used to normalize blood glucose in STZ-treated rats | 14 positive cells/mm^2 | 20 positive cells/mm^2 | 0.04 grade |  | 26.7 Arbitrary units | prevented |  |  | reduces the number of apoptotic cells, but does not prevent apoptosis completely
